# Test results: patent US5492930A, “Method and formulation for treating CNS disorders” (Schering Corporation, priority 1994, dated 1996)
# Like-named read-outs stand apart in the source and are kept apart here.
# Tests used:
# [1] = tested on: electroconvulsive shock (ECS) induced convulsions; test: blocking electroconvulsive shock (ECS) induced convulsions (Swinyard et al. procedures); type: in vivo
# [2] = tested on: scopolamine induced cognitive deficit; test: passive avoidance response (PAR) test, scopolamine induced cognitive deficit; type: in vivo; settings: mice, sc or po (FIGS. 1 and 2)
# Method: FIGS. 1 and 2 are plots showing the mean latency time in the passive avoidance response (PAR) test of Compound I and arecoline in reversing scopolamine induced cognitive deficits where Compound I is administered subcutaneously (sc) or orally (po).
# (§1) See, for example Dilts and Berry, J. Pharmacology and Experimental Therapeutics 58, 279-285 (1967).
# [3] = tested on: cognitive deficits (scopolamine, MK-801); test: cognitive enhancement (Examples I and II overall); type: in vivo, mice; settings: data of Examples I and II
# Description: as §1
# (§2) The NMDA receptor is strongly implicated in the production of long-term potentiation and subsequent memory processes (Morris, et al., Nature Vol. 319, pp 774-776 (1986)). Blockade of these sites produces amnestic effects in mice on the passive avoidance response.
# [4] = tested on: amnestic effects of MK-801; test: passive avoidance response (PAR) test, amnestic effects of MK-801; type: in vivo; settings: mice
# Description: FIG. 3 is a plot showing the mean latency time in the PAR test of felbamate and Compound I in blocking the amnestic effects of MK-801.
# FIG. 4 is a plot showing the mean latency time in the PAR test of Compound I and the corresponding monoacid-monocarbamate.
# as §2
# [5] = literature statement; cited from earlier work
# [6] = tested on: amnestic effects of MK-801; settings: Chiamulera et al. 1990; cited from earlier work
# [7] = tested on: scopolamine induced cognitive deficit; settings: passive avoidance response test, mice; cited from earlier work
# [8] = SC, blocking ECS induced convulsions, read-out: ED50
smiles,measurement,setting,value
NC(=O)N1c2ccccc2C=Cc2ccccc21 [Carbamazepine],ED50,[1]; [8],12 mg/kg
"NC(=O)OCC(CO)c1ccccc1 (stereo not drawn) [Compound I, 2-phenyl-1,3-propanediol monocarbamate]",antagonism of the amnestic effects of scopolamine,[2],antagonist for the amnestic effects of scopolamine over a very wide dosage range
same,effectiveness vs the corresponding dicarbamate and monoacid-monocarbamate compounds,[3],significantly more effective than the corresponding dicarbamate and monoacid-monocarbamate compounds
same,effectiveness in blocking ECS induced convulsions vs felbamate and other known anti-convulsants,[1]; in words,significantly less effective than felbamate and other known anti-convulsants
same,ED50,[1]; sc,173 mg/kg
same,blocking the amnestic effects of MK-801,[4],effectively blocks the amnestic effects of MK-801 in this model at low doses
same,effectiveness in blocking the effects of MK-801 vs the corresponding monoacid-monocarbamate,[4],more effective than the corresponding monoacid-monocarbamate
O=C1NC(=O)C(c2ccccc2)(c2ccccc2)N1 [Dilantin],ED50,[1]; [8],5.5 mg/kg
"NC(=O)OCC(COC(N)=O)c1ccccc1 [Felbamate, 2-phenyl-1,3-propanediol dicarbamate]",anticonvulsant effect,[5],effective anticonvulsant agent
same,ED50,[1]; [8],42.2 mg/kg
same,blocking the amnestic effects of MK-801,[4],does not block the effect of MK-801
C[C@]12N[C@H](Cc3ccccc31)c1ccccc12 [MK-801],cognitive deficits produced,[6],produces cognitive deficits
CCC1(c2ccccc2)C(=O)NC(=O)NC1=O [Phenobarbital],ED50,[1]; sc,12 mg/kg
CN1[C@@H]2C[C@@H](OC(=O)[C@H](CO)c3ccccc3)C[C@H]1[C@@H]1O[C@@H]12 [Scopolamine],amnestic effect,[7],well-known amnestic for mice in a passive avoidance response test
CCCC(CCC)C(=O)O [Valproate],ED50,[1]; sc,550 mg/kg
